Experimental data: paper PMC9202104 (BMC Biology, 2022)
Read-outs that look alike come from different tables or passages of the source.

Experiments:
ZIKV infection = conditions: read-out: IC50 against ZIKV infection (reported); cited from earlier work
[1] = system: ZIKV human strain PAN2016 (2016/Panama); test: Plaque assay, inhibition of ZIKV infection (strain PAN2016); conditions: for SI (CC50/IC50): CC50 Vero E6 / IC50 ZIKV PAN2016
Procedure: (§1) After removal of the unbound compounds by centrifugation (after addition of 3% PEG-6000), ZIKV was incubated with Vero E6 cells in 24-well plates at 37°C for 1 h. The cells were then washed with PBS, overlaid with DMEM containing 1% carboxymethyl cellulose and 2% FBS, and cultured at 37°C for 4–5 days, followed by being stained with 0.5% crystal violet. […] Plaques in each well were calculated, and IC50 of compounds for each compound was calculated using the CalcuSyn computer program.

ZIKV human strain FLR = test: Plaque assay, inhibition of ZIKV infection (strain FLR); type: cell-based; conditions: Zika virus
Procedure: as §1

[2] = system: 8 human ZIKV strains (PAN2016, R116265, PAN2015, FLR, R103451, PRVABC59, PLCal_ZV, IbH 30656); test: microbe, parasite or virus in culture; type: cell-based; conditions: Zika virus, read-out: Average IC50 (human strains)
Procedure: as §1

[3] = system: ZIKV human strain PLCal_ZV; test: Plaque assay, inhibition of ZIKV infection (strain PLCal_ZV); type: cell-based; conditions: Zika virus
Procedure: as §1

[4] = system: ZIKV human strain R116265; test: Plaque assay, inhibition of ZIKV infection (strain R116265); type: cell-based; conditions: Zika virus, Vero C1008, Vero E6 cells
Procedure: as §1

[5] = system: ZIKV mosquito strain MEX 2-81; test: Plaque assay, inhibition of ZIKV infection (strain MEX 2-81); type: cell-based; conditions: Zika virus
Procedure: as §1

[6] = system: ZIKV human strain PAN2015; test: Plaque assay, inhibition of ZIKV infection (strain PAN2015); type: cell-based; conditions: Zika virus, Vero C1008, Vero E6 cells
Procedure: as §1

[7] = system: ZIKV human strain PRVABC59; test: Plaque assay, inhibition of ZIKV infection (strain PRVABC59); type: cell-based; conditions: Zika virus
Procedure: as §1

[8] = system: ZIKV human strain IbH 30656; test: Plaque assay, inhibition of ZIKV infection (strain IbH 30656); type: cell-based; conditions: Zika virus
Procedure: as §1

[9] = system: ZIKV human strain R103451; test: Plaque assay, inhibition of ZIKV infection (strain R103451); type: cell-based; conditions: Zika virus
Procedure: as §1

[10] = Cytotoxicity, Cell Counting Kit-8, Vero E6 cells; type: cell-based; conditions: African green monkey, CC50 Vero E6
Procedure: (§2) Briefly, compounds at 2-fold serial dilutions were added to the respective cells (2.0×10^4/well) pre-seeded in 96-well plates. The cells were cultured at 37°C in the presence of 5% CO2 for 3 days, […] incubated with CCK8 solution, followed by measurement of absorbance at 450 nm (A450 value), using a microplate reader (Infinite F200PRO, Tecan, Morrisville, NC, USA). CC50 of compounds was calculated using the CalcuSyn program.

Vero E6 cells = test: Cytotoxicity, Cell Counting Kit-8, Vero E6 cells; type: cell-based; conditions: African green monkey, 3 days
Procedure: as §2

[11] = system: ZIKV rhesus macaque strain MR 766; test: Plaque assay, inhibition of ZIKV infection (strain MR 766); type: cell-based; conditions: Zika virus
Procedure: as §1

DENV-1-V1792 = test: Plaque assay, inhibition of DENV-1 infection in LLC-MK2 cells; type: cell-based; conditions: Dengue virus, DENV1
[12] = system: ZIKV human strain R103451; test: Lethal ZIKV challenge in adult Ifnar1−/− mice, survival and weight; type: in vivo; conditions: ZIKV R103451 200 PFU
Procedure: (§3) Briefly, 7–8-week-old male mice were used, and two separate experiments were performed. […] These mice were i.p. infected with ZIKV (human strain R103451, 200 PFU/mouse) and observed daily for weight changes and survival until 21 dpi. […] Five days later, these mice were sacrificed, and their tissues, including the heart, testis, eye, kidney, and brain, were collected for detection of viral titers by plaque assay, or apoptosis by immunofluorescence staining. Mice losing 20% of initial weight with severe symptoms, including hind limb weakness and paralysis, or 25% of initial weight, were humanely euthanized with an overdose isoflurane in a Bell Jar, followed by cervical dislocation.

DENV-4-PR-06-65-740 = test: Plaque assay, inhibition of DENV-4 infection in LLC-MK2 cells; type: cell-based; conditions: Dengue virus, DENV4
DENV-2 human strain V594 = test: DENV-2 challenge in Ifnar1−/− mice, flow cytometry titers; type: in vivo; conditions: C6/36 cells, flow cytometry, 3 dpi, 20 mg/kg i.p., representative image
Procedure: Three days after infection, sera and tissues, including the brain, kidney, and heart, were collected and assessed for DENV infection using a flow cytometry assay, as described below. Tissues were freshly homogenized with cold culture medium (EMEM + 2% FBS) and centrifuged at 4°C and 2000 g for 10 min. Serially diluted tissue supernatants and sera were added to C6/36 cells, as described below. DENV titers in tissues or sera were assessed from ~20 mg of tissue samples, or 25 μl of sera, and used for subsequent flow cytometry analysis.
Flow cytometry assay was carried out to analyze DENV-2 titers in the supernatants of homogenized tissues and sera from DENV-2-infected mice collected above. Briefly, homogenized tissue supernatants or sera were added to C6/36 cells (5×10^5 cells/well) pre-seeded in 24-well plates which the culture medium was removed, and the cells were incubated for 1 h (28°C, 5% CO2). After incubation, the cells were washed with PBS, incubated with EMEM containing 2% FBS, and then cultured for 3 days as described above. After further removal of medium, the cells were digested, washed with PBS, and resuspended in FIX/PERM solution (Tonbo Biosciences, San Diego, CA, USA), followed by incubation at 4°C for 1 h in the dark. The cells were then sequentially incubated with mouse anti-flavivirus mAb 4G2 (2 μg/ml) at 37°C for 1 h and FITC-labeled anti-mouse IgG (0.5 mg/ml, BioLegend, San Diego, CA, USA) at 37°C for 30 min, followed by analysis using a FACScan flow cytometer and Summit software. Viral titers (infectious units/ml or infectious units/g) were calculated using the formula ((% of infected cells)×(total number of cells)×(dilution factor)/(amount of inoculum added to cells)).

DENV-3-V1043 = test: Plaque assay, inhibition of DENV-3 infection in LLC-MK2 cells; type: cell-based; conditions: Dengue virus, DENV3
in vitro = type: cell-based; conditions: rhesus monkey
Procedure: as §2

DENV-2-V594 = test: Plaque assay, inhibition of DENV-2 infection in LLC-MK2 cells; type: cell-based; conditions: Dengue virus, DENV2
[13] = system: ZIKV human strain PAN2016; test: ZIKV challenge in adult Ifnar1−/− mice, tissue viral titers and immunofluorescence; type: in vivo; conditions: 20 mg/kg i.p.; ZIKV PAN2016 200 PFU; 5 dpi; compared to DMSO-treated mice
Procedure: as §3
Plaque assay was used to detect viral titers in ZIKV-infected tissues. Briefly, tissues were homogenized with cold culture medium (DMEM + 2% FBS) and then centrifuged (2000 g at 4°C for 10 min). Supernatants were serially diluted to infect Vero E6 cells in 24-well plates. ZIKV titers in tissues were measured from ~40 mg of samples; thus, the detection limit was about 25 PFU/g of tissues.
Immunofluorescence staining was carried out to detect ZIKV and caspase-3 signals in ZIKV-infected mouse tissues. Briefly, tissues were fixed in 4% formaldehyde, embedded in paraffin, and sectioned. The tissue sections were deparaffinized, fixed, and permed using the FIX and PERM Cell Permeabilization Kit (Thermo Fisher Scientific, Waltham, MA, USA). After blocking with 5% BSA, the tissue slides were incubated at 37°C 2 h with ZIKV EDIII-specific human mAb (ZV-67, 1:100, Absolute Antibody, Boston, MA, USA), or rabbit anti-active caspase-3 antibody (1:100, Abcam). The slides were washed with PBS and incubated for 30 min with anti-human FITC antibody (1:100, for ZIKV), or anti-rabbit Alexa Fluor 647 antibody (1:100, for caspase-3). The slides were then counterstained for nuclei, using DAPI (300 nM, Thermo Fisher Scientific, Waltham, MA, USA) for 5 min, and mounted in VectaMount Permanent Mounting Medium (Vector Laboratories, CA, USA). The slides were analyzed using a confocal microscope (Zeiss LSM 880) and ZEN software, and fluorescent signals were quantified by ImageJ software.

[14] = Zika virus, Vero C1008, in Homo sapiens, read-out: IC50 against infection of ZIKV PAN2016, plaque assay, Vero E6 cells
[15] = read-out: IC50 against infection of ZIKV PAN2016, plaque assay, Vero E6 cells

Oc1cccc(-c2c3nc(c(-c4cccc(O)c4)c4ccc([nH]4)c(-c4cccc(O)c4)c4nc(c(-c5cccc(O)c5)c5ccc2[nH]5)CC4)C=C3)c1 [Temoporfin]
IC50 (ZIKV infection): 1.1 µM

Cc1cc2c(C(C)C)c(O)c(O)c(/C=N/NC(=O)C(C)C)c2c(O)c1-c1c(C)cc2c(C(C)C)c(O)c(O)c(/C=N/NC(=O)C(C)C)c2c1O [ST086273]
SI (CC50/IC50) [1]: 10.23
IC50 [1, 14]: 4.8 µM
IC50 [1, 15]: 4.93 ± 0.7 µM
IC50 (ZIKV human strain FLR; Vero C1008, plaque assay, Vero E6 cells, human strain, read-out: IC50 FLR): 4200 nM
IC50 [2]: 5.5 µM
IC50 ([3]; Vero C1008, plaque assay, Vero E6 cells, human strain, read-out: IC50 PLCal_ZV): 5.9 µM
IC50 [4]: 7.9 µM
IC50 ([5]; Vero C1008, plaque assay, Vero E6 cells, mosquito strain, read-out: IC50 MEX 2-81): 2800 nM
IC50 [6]: 5 µM
IC50 ([7]; Vero C1008, plaque assay, Vero E6 cells, human strain, read-out: IC50 PRVABC59): 4 µM
IC50 ([8]; Vero C1008, plaque assay, Vero E6 cells, human strain, read-out: IC50 IbH 30656): 5.4 µM
IC50 ([9]; Vero C1008, plaque assay, Vero E6 cells, human strain, read-out: IC50 R103451): 7 µM
CC50 at 3 days [10]: 50.5 µM
CC50 (Vero E6 cells): 50.5 ± 3.36 µM
IC50 ([11]; Vero C1008, plaque assay, Vero E6 cells, rhesus strain, read-out: IC50 MR 766): 5.5 µM

CC(C)OC(=O)[C@H](C)N[P@](=O)(OC[C@H]1O[C@@H](n2ccc(=O)[nH]c2=O)[C@](C)(F)[C@@H]1O)Oc1ccccc1 [Sofosbuvir]
IC50 (ZIKV infection): 9.6 µM

Cc1cc2c(C(C)C)c(O)c(O)c(C=O)c2c(O)c1-c1c(C)cc2c(C(C)C)c(O)c(O)c(C=O)c2c1O [Gossypol, reference compound]
IC50 [1, 14]: 3.8 µM
IC50 [1, 15]: 3.78 ± 0.3 µM
IC50 (ZIKV human strain FLR; Vero C1008, read-out: IC50 FLR): 700 nM
IC50 [2]: 3.4 µM
IC50 (DENV-1-V1792): 2060 ± 130 nM
Mice protected from death (survival) ([12]; 20 mg/kg i.p. 12 h before and 6, 24, 48 h post-infection, observed 21 days): no mice treated with gossypol survived at 6 dpi
Weight loss ([12]; 20 mg/kg i.p., ST087010 figure during 6–12 dpi): increased weight loss
IC50 ([3]; Vero C1008, read-out: IC50 PLCal_ZV): 2.9 µM
IC50 ([5]; Vero C1008, read-out: IC50 MEX 2-81): 2900 nM
IC50 (DENV-4-PR-06-65-740): 2830 ± 70 nM
IC50 ([7]; Vero C1008, read-out: IC50 PRVABC59): 4.6 µM
IC50 ([8]; Vero C1008, read-out: IC50 IbH 30656): 3.4 µM
DENV-2 in brain, percentage of infected cells (DENV-2 human strain V594): 3.6%
DENV-2 in heart, percentage of infected cells (DENV-2 human strain V594): 3.8%
DENV-2 in kidney, percentage of infected cells (DENV-2 human strain V594): 4.1%
DENV-2 in sera, percentage of infected cells (DENV-2 human strain V594): 50.9%
IC50 (DENV-3-V1043): 3.42 ± 0.11 µM
IC50 ([9]; Vero C1008, read-out: IC50 R103451): 3.1 µM
CC50 at 3 days (in vitro): 19.1 ± 1.09 µM
CC50 at 3 days [10]: 14.5 µM
CC50 (Vero E6 cells): 14.49 ± 0.07 µM
IC50 ([11]; Vero C1008, read-out: IC50 MR 766): 4.1 µM
IC50 (DENV-2-V594): 1910 ± 10 nM
Viral titers in the heart, kidney, and brain [13]: significantly higher

Cc1cc2c(c(O)c1-c1c(C)cc3c(c1O)/C(=C/NCCO)C(=O)C(O)=C3C(C)C)/C(=C/NCCO)C(=O)C(O)=C2C(C)C [ST004331]
SI (CC50/IC50) [1]: 1.20
IC50 [1, 14]: 35.02 ± 0.35 µM
CC50 at 3 days [10]: 42.3 ± 1.17 µM
